Data as given in paper PMC12264554, “Application of preclinical absorption, distribution, metabolism, elimination in vitro techniques for the characterization and compound library optimization of novel antibiotic gallium salophen” (Drug Metabolism and Disposition, 2025).
One block for each compound: values may come before it.

Experiments:
[1] = Microsomal clearance assay; type: in vitro ADME, rat; settings: 2 μM, rat liver microsomes
Method: Library compounds were tested in triplicate at a concentration of 2 μM and incubated in 0.1 M potassium phosphate buffer containing 12 mM MgCl2 and 8 mM NADPH at pH 7.4 with either 0.5 mg/mL of Sprague–Dawley liver microsomes (Invitrogen). Samples were incubated for 0, 3, 7, 12, 20, and 30 minutes. At the designated time point, the incubation reaction was stopped by adding 100 μL of ACN containing 1 μM of either GaSal-4 or GaSal-5 as the internal standards. […] 7-Ethoxycoumarin (Sigma) was used as a positive control in this experiment. Intrinsic clearance (CLint) was calculated using eq. 2:(2) CLint=0.693/InVitroT1/2∗IncubationVolume/mgofmicrosomes∗45mgmicrosomes/gramofliver∗45gramsliver/kgofbodyweight
The average CLint ± SEM was determined for each compound for 2 replicates per time point.

S9 clearance assay = type: in vitro ADME; settings: Sprague-Dawley, pH 7.4, S9 rat liver fraction
Method: Select library compounds were tested in triplicate at a concentration of 2 μM and incubated in 0.1 M potassium phosphate buffer containing 12 mM MgCl2 and 8 mM NADPH at pH 7.4 with 2.5 mg/mL of Sprague–Dawley S9 (Invitrogen). Incubations contained a final concentration of 2.5 mM UDP glucuronic acid, 0.10 mM adenosine 3’-phosphate 5’-phosphosulfate, 0.5 mM acetyl CoA, and 50 μg/mg protein alamethicin. All co-factors were from Sigma. Samples were incubated for 0, 3, 7, 12, 20, and 30 minutes. At the designated time point, the incubation reaction was stopped by adding 100 μL of ACN containing 1 μM of either GaSal-4 or GaSal-5 as the internal standard. […] A hundred microliter of supernatant was taken for LC-MS/MS analysis. 7-Ethoxycoumarin (Sigma) was used as a positive control in this experiment. Clearance was calculated according to eq. 3:(3) CLint=0.693/InVitroT1/2∗IncubationVolume/mgofS9∗165mgS9/gramofliver∗45gramsliver/kgofbodyweight
The average CLint ± SEM was determined for each compound for 3 replicates per time point.

Caco-2 cells = experiment: Caco-2 permeability screening; type: in vitro ADME; settings: Caco-2
Method: (§1) Caco-2 cells were received from American Type Culture Collection and certified mycoplasma free. Cells were seeded on transwell plates (CoStar, growth area 0.33 cm^2/well, polycarbonate membrane, 0.33 μm pore size) between passage 20 and 27 and then analyzed between 21 and 25 days after wells were seeded to ensure enterocyte-like differentiation. Before assessing permeability, cells were washed once with Hank’s Balanced Salt Solution buffer, pH 7.4, and then incubated at 37 °C for 30 minutes. Transepithelial electrical resistance (TEER) was measured after equilibration before the experiment using an epithelial volt-ohmmeter (EVOM, World Precision Instruments), and cells were used if TEER > 250 Ω × cm^2. Cells were dosed to measure permeability from basolateral and apical sides at a concentration of 20 μM of test compound and 50 μM of Lucifer yellow. Lucifer yellow was used as a “zero permeability” marker to monitor the integrity of cell barrier. Samples were taken at 0 and 60 minutes from the donor side, and samples were taken at 30 and 60 minutes from the receiver side; media was replenished after the 30-minute sample was taken from both chambers. A calibration curve was prepared by serial dilution using the dosing solution in a 1:5 dilution. […] Samples were prepared for LC-MS/MS analysis by taking 100 μL of sample, adding 1 μM internal standard (GaSal-4 or GaSal-5), and crashing with 400 μL of methanol. Samples were centrifuged at 3000 rpm at 4 °C for 30 minutes, 200 μL of supernatant was transferred to a new plate, and 100 μL of water was added to each sample. Samples were vortexed and analyzed by LC-MS/MS as described earlier. […] To preliminarily evaluate organic cation transporter 1 (OCT1) or P-glycoprotein (P-gp)-dependent transport, transport studies were conducted with and without a 1 μM “inhibitor cocktail” alongside GaSal. […] The Papp for basolateral to apical, Papp apical to basolateral, and efflux ratio were reported for each compound. In order to calculate Papp, the concentration in the sampled time point was determined from the calibration curve and then converted to μg based on the volume of the chamber (0.2 mL for apical, 1.0 mL for basolateral). […] The calculation of Papp was determined using eq. […] Data are presented as the average ± SEM for each compound analyzed as n = 3 on 2 different days with 2 different cell line passages, for n = 6 total. GaSal is n = 3 on 3 different cell line passages since this was used as a test compound for the inhibition cocktail experiments.

[2] = Caco-2 permeability screening; type: in vitro ADME; settings: human, Caco-2, pH 7.4, known drug standards
Method: as §1

PL proteins = settings: 2012, cited from earlier work; for PL protein bound: ref Pike and Skuterud, 1982, Zhang et al

concentration change over 30 minutes in microsomes [1]: metabolized by the microsomes
half-life at 2 µM (S9 clearance assay; average ± SEM n = 3): 25.2 ± 7.8 min
CLint scaled at 2 μM (S9 clearance assay; average ± SEM n = 3, read-out: Predicted CLint (converted)): 190 mL/min/kg
SMILES: CCOc1ccc2ccc(=O)oc2c1 [7-ethoxycoumarin, 7-Ethoxycoumarin, reference compound]

Permeability Ranking (Caco-2 cells): Not Permeable
efflux ratio at 60 min, 20 μM ([2]; read-out: Efflux Ratio B to A/ A to B): 1.46
Papp A→B at 60 min, 20 μM ([2]; read-out: Papp Apical to Basolateral): 0.02 ± 0.001 ×10⁻⁶ cm/s
Papp B→A at 60 min, 20 μM ([2]; read-out: Papp Basolateral to Apical): 0.03 ± 0.01 ×10⁻⁶ cm/s
SMILES: CN(Cc1cnc2nc(N)nc(N)c2n1)c1ccc(C(=O)N[C@@H](CCC(=O)O)C(=O)O)cc1 [Methotrexate, reference compound]
expected protein binding (PL proteins; control compounds, ref Zhang et al): 50%

SMILES: CN(C)CCC=C1c2ccccc2CCc2ccccc21 [amitriptyline]
PL protein bound (PL proteins): > 90%

SMILES: CN(C)CCCN1c2ccccc2CCc2ccccc21 [imipramine]
PL protein bound (PL proteins): > 90%
